These results are taken from patent US9376376B2, “Substitute diphenylamine compounds use thereof as antitumor agents” (SINOCHEM CORPORATION, priority 2012, dated 2016).

The structures appear in SMILES notation.

One assay deals with colon cancer COLO-205. Put plainly: In vitro cell inhibition assay, CCK-8 method, COLO-205. Particulars: Homo sapiens, COLO 205, read-out: The half maximal inhibitory concentration (IC50). Background: Formazan colour is commonly taken as a measure of viable cells.
In another assay the test system is colon cancer HT-29. Nature of the assay: In vitro cell inhibition assay, CCK-8 method, HT-29. It is filed as cell-based, human. Particulars: Homo sapiens; Colorectal Cancer HT-29, CCK-8 method; read-out: The half maximal inhibitory concentration (IC50). How it is done: (§1) After the cell culture flasks gently shaking, culture fluid was discarded in clean bench. […] Cells were collected and transferred to centrifuge tube. For the non-adherent cells HL-60, CCRF-CEM and MOLT-4, cell flasks were picked up from incubator and then transferred to the centrifuge tubes directly. After cells were collected using centrifuge at 1000 rpm/min for 5 min, the fluid was discarded. Then cells were washed for one time by PBS, discard fluid. Then add some medium, count cells under inverted microscope using blood cell counting plate, according the counting number to making the density of adherent cell was 1×10^5 cells/mL, the non-adherent cell was 2×10^5 cells/mL (the volumes of HL-60, CCRF-CEM, MOLT-4 are smaller than non-adherent cells, these cells added to each well was much more higher). Add 50 μL aliquots to each well of 96-well plates (the density of adherent cells was 5000 cells/well, non-adherent cells was 10000 cells/well). Blank control, Negative control, blank control with compounds and positive control wells were grouped, and three replicate wells were used for each data point in the experiments. Then the cells were cultured in 5% incubator for overnight at 37° C., Then the different concentration compounds were added to each well. […] The absorbance (A) of each well was read at 450 nm using a plate reader.

Assay [1] deals with non-small cell lung cancer NCI-H358. Put plainly: In vitro cell inhibition assay, CCK-8 method, NCI-H358. It is filed as cell-based, human. The note with it: Homo sapiens; Non-small-cell carcinoma NCI-H358, CCK-8 method; read-out: The half maximal inhibitory concentration (IC50). How it is done: as §1
Another assay relates to prostate cancer PC-3. Nature of the assay: In vitro cell inhibition assay, CCK-8 method, PC-3. It is filed as cell-based, human. The note with it: Homo sapiens; Prostate cancer PC-3, CCK-8 method; read-out: The half maximal inhibitory concentration (IC50). How it is done: as §1
The next assay concerns prostate cancer DU-145. Nature of the assay: In vitro cell inhibition assay, CCK-8 method, DU-145. It is filed as cell-based, human. The note with it: Homo sapiens; Prostate cancer DU-145, CCK-8 method; read-out: The half maximal inhibitory concentration (IC50). As for the experimental part: as §1
A further assay has as its system leukemia HL-60 cells. Nature of the assay: In vitro cell inhibition assay, CCK-8 method, HL-60. The format is cell-based, human. The note with it: for Proliferation inhibitory effect of the compounds on HL-60 cells (% of Control): CCK-8 method. How it is done:
(§2) After the cell culture flasks gently shaking, culture fluid was discarded in clean bench. […] Cells were collected and transferred to centrifuge tube. For the non-adherent cells HL-60, CCRF-CEM and MOLT-4, cell flasks were picked up from incubator and then transferred to the centrifuge tubes directly. After cells were collected using centrifuge at 1000 rpm/min for 5 min, the fluid was discarded. Then cells were washed for one time by PBS, discard fluid. Then add some medium, count cells under inverted microscope using blood cell counting plate, according the counting number to making the density of adherent cell was 1×10^5 cells/mL, the non-adherent cell was 2×10^5 cells/mL (the volumes of HL-60, CCRF-CEM, MOLT-4 are smaller than non-adherent cells, these cells added to each well was much more higher). Add 50 μL aliquots to each well of 96-well plates (the density of adherent cells was 5000 cells/well, non-adherent cells was 10000 cells/well). Blank control, Negative control, blank control with compounds and positive control wells were grouped, and three replicate wells were used for each data point in the experiments. Then the cells were cultured in 5% incubator for overnight at 37° C., Then the different concentration compounds were added to each well. After incubation for 48 h, according to the manufacturer's instructions, CCK-8 reagent (10 μl) was added and incubation was continued for a further 2-4 h. The absorbance (A) of each well was read at 450 nm using a plate reader.

Assay [2] has as its system nasopharyngeal carcinoma CNE. Put plainly: In vitro cell inhibition assay, CCK-8 method, CNE. The format is cell-based, human. The note with it: Homo sapiens, read-out: The half maximal inhibitory concentration (IC50). How it is done:
as §1

In assay [3] the test system is non-small cell lung cancer A549 cells. Put plainly: In vitro cell inhibition assay, CCK-8 method, A549. It is filed as cell-based, human. The note with it: for Proliferation inhibitory effect of the compounds on A549 cells (% of Control): 48 h incubation. As for the experimental part: as §2
The subject of a further assay is leukemia CCRF-CEM. Nature of the assay: In vitro cell inhibition assay, CCK-8 method, CCRF-CEM. The format is cell-based, human. The note with it: Homo sapiens, read-out: The half maximal inhibitory concentration (IC50). As for the experimental part: as §1
For another assay, the system named is osteosarcoma MG-63. Nature of the assay: In vitro cell inhibition assay, CCK-8 method, MG-63. It is filed as cell-based, human. The note with it: Homo sapiens; osteosarcoma MG-63, CCK-8 method; read-out: The half maximal inhibitory concentration (IC50). As for the experimental part: as §1
The test system of another assay is bladder cancer T24. Nature of the assay: In vitro cell inhibition assay, CCK-8 method, T24. The format is cell-based, human. The note with it: Homo sapiens; bladder cancer T24, CCK-8 method; read-out: The half maximal inhibitory concentration (IC50). As for the experimental part: as §1
The next assay relates to leukemia MOLT-4. Nature of the assay: In vitro cell inhibition assay, CCK-8 method, MOLT-4. It is filed as cell-based, human. The note with it: Homo sapiens; leukemia MOLT-4, CCK-8 method; read-out: The half maximal inhibitory concentration (IC50). How it is done: as §1
The subject of another assay is breast cancer MDA-MB-231. Nature of the assay: In vitro cell inhibition assay, CCK-8 method, MDA-MB-231. The format is cell-based, human. The note with it: Homo sapiens; breast cancer MDA-MB-231, CCK-8 method; read-out: The half maximal inhibitory concentration (IC50). As for the experimental part:
as §1

In assay [4] the test system is non-small cell lung cancer NCI-H1650. Put plainly: In vitro cell inhibition assay, CCK-8 method, NCI-H1650. The format is cell-based, human. Particulars: Homo sapiens; Non-small-cell carcinoma NCI-H1650, CCK-8 method; read-out: The half maximal inhibitory concentration (IC50). How it is done: as §1
The next assay relates to glioma U251. Nature of the assay: In vitro cell inhibition assay, CCK-8 method, U251. It is filed as cell-based, human. The note with it: Homo sapiens, U-251; glioma U251, CCK-8 method; read-out: The half maximal inhibitory concentration (IC50). As for the experimental part:
as §1

In a further assay the test system is pancreatic cancer BXPC-3. Put plainly: In vitro cell inhibition assay, CCK-8 method, BXPC-3. The format is cell-based, human. Particulars: Homo sapiens; pancreatic cancer BXPC-3, CCK-8 method; read-out: The half maximal inhibitory concentration (IC50). As for the experimental part:
as §1

The next assay concerns hepatocarcinoma SK-HEP-1. Put plainly: In vitro cell inhibition assay, CCK-8 method, SK-HEP-1. Particulars: Homo sapiens, SK-HEP1; hepatocarcinoma SK-HEP-1, CCK-8 method; read-out: The half maximal inhibitory concentration (IC50). The format is cell-based, human. How it is done: as §1
In assay [5] the test system is intracranial malignant melanoma A375. Nature of the assay: In vitro cell inhibition assay, CCK-8 method, A375. Particulars: Homo sapiens, A-375; melanoma A375, CCK-8 method; read-out: The half maximal inhibitory concentration (IC50). It is filed as cell-based, human. As for the experimental part: as §1
The next assay relates to cervical cancer Hela. Put plainly: In vitro cell inhibition assay, CCK-8 method, Hela. The note with it: Homo sapiens, read-out: The half maximal inhibitory concentration (IC50). The format is cell-based, human. How it is done:
as §1

Take `COc1cc2ncnc(Nc3ccc(F)c(Cl)c3)c2cc1OCCCN1CCOCC1` [Gefitinib]: the IC50 in the assay with colon cancer COLO-205 stood at 6970 nM.
`CC(=O)O[C@H]1C(=O)[C@@]2(C)[C@H]([C@H](OC(=O)c3ccccc3)[C@]3(O)C[C@H](OC(=O)[C@H](O)[C@@H](NC(=O)c4ccccc4)c4ccccc4)C(C)=C1C3(C)C)[C@]1(OC(C)=O)CO[C@@H]1C[C@@H]2O` [Taxol]: the IC50 was more than 100000 nM in the assay on colon cancer HT-29; 278 nM in [1]; 69000 nM with prostate cancer PC-3; 17400 nM with prostate cancer DU-145; less than 10 nM with leukemia HL-60 cells (Homo sapiens, leukemia HL-60, CCK-8 method, read-out: The half maximal inhibitory concentration (IC50)); more than 100000 nM in assay [2]. The IC50 in [3] (Homo sapiens, Non-small-cell carcinoma A549, CCK-8 method, read-out: The half maximal inhibitory concentration (IC50)) was 83500 nM; with leukemia CCRF-CEM, less than 10 nM; in the assay with osteosarcoma MG-63, less than 10 nM; with bladder cancer T24 it was 3540 nM; with leukemia MOLT-4, less than 10 nM; in the assay on breast cancer MDA-MB-231, 2020 nM. Also, the IC50 was 420 nM in assay [4]; more than 100000 nM with glioma U251; less than 10 nM in the assay with pancreatic cancer BXPC-3; less than 10 nM in the assay with colon cancer COLO-205; 47 nM with hepatocarcinoma SK-HEP-1; 55300 nM in assay [5]. Further, the IC50 with cervical cancer Hela is less than 10 nM.
On to `COC(=O)c1cc(Cl)c(Nc2c(Cl)c(Cl)c(C#N)c(Cl)c2C#N)c(Cl)c1` [Compound 6-100], for which the “Proliferation inhibitory effect of the compounds on HL-60 cells (% of Control)” value with leukemia HL-60 cells (concentration 0.01 μM) is recorded as 14.24 % of Control; in the assay with leukemia HL-60 cells (concentration 0.1 μM) it was 26.90 % of Control; with leukemia HL-60 cells (concentration 1 μM) it was 39.47 % of Control; with leukemia HL-60 cells (concentration 10 μM), 49.85 % of Control; in the assay with leukemia HL-60 cells (concentration 100 μM), 97.42 % of Control. The “Proliferation inhibitory effect of the compounds on A549 cells (% of Control)” value in assay [3] (CCK-8, 0.01 μM) is on record as 43.98 % of Control; in assay [3] (CCK-8, 0.1 μM) it was 50.53 % of Control; in assay [3] (CCK-8, 1 μM), 52.15 % of Control; in assay [3] (CCK-8, 10 μM), 57.45 % of Control; in [3] (CCK-8, 100 μM) it was 89.94 % of Control.
